Measurements reported in patent US10472341B2, “Bicyclic tetrahydrothiazepine derivatives useful for the treatment of neoplastic and/or infectious diseases” (APEIRON BIOLOGICS AG, priority 2015, dated 2019).

Key:
[1] = system: immune cells & anti-GD2-antibodies bound on M21 melanoma cells; assay: Immune cells stimulated by anti-GD2-antibody bound on M21 melanoma cells: TNF-alpha, activated NK cells; assay type: cell-based, human
Protocol: Isolated PBMCs, NK cells or CD8 positive cells were plated in Xvivo medium at 1.5*10^5 cells per in 96 well culture plates in the presence of 0.3*10^4 tumor cells where indicated. Cytokine secretion was determined by ELISA, immune cell activation (using Beckman-Coulter Abs CD25-PC5, CD69-PC7), cell viability and numbers by flow cytometry (Beckman-Coulter FC500 or Gallios) using 7-AAD exclusion as criterion for living cells. […] Antibodies that are bound to pathogens or pathogen-infected cells trigger activation of immune cells via Fc-receptors, that are expressed particularly on NK cells and myeloid cells. This mechanism is also utilized for cancer therapies when therapeutic antibodies against antigens which are preferentially expressed on cancer cells are administrated to patients which in turn recruit and activate immune cells to directly attack cancer cells. The GD2-antigen is strongly expressed on cancer cells of particular origins (among neuroblastoma and melanoma) and is therefore developed clinically as anti-cancer therapy. For M21 melanoma cells, GD2 is the only antigen that has been characterized to be accessible as tumor antigen. Therefore, an anti-GD2-antibody that was available in clinically grade quality was employed to test whether compounds can enhance the Fc-receptor mediated activation of immune cells to tumor-cell bound therapeutic antibodies.

[2] = system: aCD3/aCD28-stimulated human CD4+-T-cells; assay: IL-2 production and activation markers in aCD3/aCD28 stimulated isolated human CD4+-T-cells; assay type: cell-based; settings: IL-2 production at 3 μM compound
Method in brief: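 CD4+ T cells isolated from buffy-coat PBMCs by microbeads were plated in Xvivo medium (1.5*10^5 cells/well) and stimulated with anti-CD3/28 mAbs plus compound. IL-2 measured by ELISA in supernatants at 24 h or 48 h; CD25 and proliferation by flow cytometry, CD69 at 24 h. Activity classes based on IL-2 at 3 μM compound.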

non-stimulated PBMCs = assay: Non-stimulated PBMCs: cytokine secretion and signs of T-cell activation; assay type: cell-based, human
Text: This is an important finding for compounds that shall selectively act on T cells which have been activated by presence of antigen from pathogens or tumors, but shall not lead to an unwanted general activation of all T cells of a patient.

[3] = system: PBMCs & tumor cell lines (K562, Panc1, BxPc3, HT-29, A549, HTB46, HTB47, A375, M21, SKBR3, CRL2505); assay: PBMCs alone or in co-culture with tumor cells of diverse origin: cytokines and granzyme; assay type: cell-based, human; settings: for Granzyme / IFN-gamma / IL-2: 3 μM
Protocol: Isolated PBMCs, NK cells or CD8 positive cells were plated in Xvivo medium at 1.5*10^5 cells per in 96 well culture plates in the presence of 0.3*10^4 tumor cells where indicated. Cytokine secretion was determined by ELISA, immune cell activation (using Beckman-Coulter Abs CD25-PC5, CD69-PC7), cell viability and numbers by flow cytometry (Beckman-Coulter FC500 or Gallios) using 7-AAD exclusion as criterion for living cells. The tumor cell lines M21 and K562 represent two widely used tumor lines of melanoma and leukemia origin, respectively. However, tumor cells are known to employ different mechanisms to suppress immune functions, therefore it was investigated if the effects of compounds on immune cell activities against tumor cells can be generalized to a wide array of tumor cells of very diverse origins from different types of tumors. PBMCs were isolated and incubated with and without compounds, either alone or in co-culture with different tumor cells.

[4] = PBMC & M21 tumor cells & anti-GD2 Ab high concentration, 0.3 μM
[5] = PBMC & M21 tumor cells & anti-GD2 Ab high concentration, 1 μM
[6] = PBMC & M21 tumor cells & anti-GD2 Ab high concentration, 3 μM
[7] = PBMC & M21 tumor cells & anti-GD2 Ab high concentration, 10 μM
[8] = PBMC & M21 tumor cells & anti-GD2 Ab low concentration, 0.3 μM
[9] = PBMC & M21 tumor cells & anti-GD2 Ab low concentration, 1 μM
[10] = PBMC & M21 tumor cells & anti-GD2 Ab low concentration, 3 μM
[11] = PBMC & M21 tumor cells & anti-GD2 Ab low concentration, 10 μM
[12] = PBMC & M21 tumor cells only, 0.3 μM
[13] = PBMC & M21 tumor cells only, 1 μM
[14] = PBMC & M21 tumor cells only, 3 μM
[15] = PBMC & M21 tumor cells only, 10 μM

Cl.N[C@H]1CSc2cc(F)c(C(=O)NCCCC(F)(F)F)cc2N(Cc2ccc(Cl)cc2)C1=O [Example 40, (3R)-3-amino-5-[(4-chlorophenyl)methyl]-8-fluoro-4-oxo-N-(4,4,4-trifluorobutyl)-2,3,4,5-tetrahydro-1,5-benzothiazepine-7-carboxamide hydrochloride]
TNF-alpha [1, 4]: 106.30 pg/mL | strongly activated NK cells [1, 4]: 23.55 % CD25+CD69+ | TNF-alpha [1, 5]: 142.98 pg/mL | strongly activated NK cells [1, 5]: 32.63 % CD25+CD69+ | TNF-alpha [1, 6]: 192.34 pg/mL | strongly activated NK cells [1, 6]: 42.50 % CD25+CD69+ | TNF-alpha [1, 7]: 257.96 pg/mL | strongly activated NK cells [1, 7]: 42.22 % CD25+CD69+ | TNF-alpha [1, 8]: 36.53 pg/mL | strongly activated NK cells [1, 8]: 6.92 % CD25+CD69+ | TNF-alpha [1, 9]: 55.72 pg/mL | strongly activated NK cells [1, 9]: 11.88 % CD25+CD69+ | TNF-alpha [1, 10]: 93.25 pg/mL | strongly activated NK cells [1, 10]: 17.22 % CD25+CD69+ | TNF-alpha [1, 11]: 114.88 pg/mL | strongly activated NK cells [1, 11]: 20.25 % CD25+CD69+ | TNF-alpha [1, 12]: 17.47 pg/mL | strongly activated NK cells [1, 12]: 0.75 % CD25+CD69+ | TNF-alpha [1, 13]: 17.59 pg/mL | strongly activated NK cells [1, 13]: 1.10 % CD25+CD69+ | TNF-alpha [1, 14]: 28.95 pg/mL | strongly activated NK cells [1, 14]: 2.40 % CD25+CD69+ | TNF-alpha [1, 15]: 38.00 pg/mL | strongly activated NK cells [1, 15]: 2.19 % CD25+CD69+ | reactivity of immune cells to anti-GD2-antibodies bound on M21 melanoma cells ([1]; cytokine secretion, NK cell activation): enhanced reactivity of immune cells to anti-GD2-antibodies bound on M21 melanoma cells, resulting in increased secretion of cytokine and activation of NK cells | Activity Class CD4+ [2]: B (IL-2 production at 3 μM compound concentration between 2-10 ng/mL) | cytokine secretion or other signs of T-cell activation (non-stimulated PBMCs): did not enhance cytokine secretion or other signs of T-cell activation | Granzyme ([3]; PBMC & A375): 0.053 ng/mL | IFN-gamma ([3]; PBMC & A375): 0.142 ng/mL | IL-2 ([3]; PBMC & A375): 0.278 ng/mL | Granzyme ([3]; PBMC & A549): 0.020 ng/mL | IFN-gamma ([3]; PBMC & A549): 0.214 ng/mL | IL-2 ([3]; PBMC & A549): 0.018 ng/mL | Granzyme ([3]; PBMC & BxPc3): 0.008 ng/mL | IFN-gamma ([3]; PBMC & BxPc3): 0.088 ng/mL | IL-2 ([3]; PBMC & BxPc3): 0.092 ng/mL | Granzyme ([3]; PBMC & CRL2505): 0.780 ng/mL | IFN-gamma ([3]; PBMC & CRL2505): 0.663 ng/mL | IL-2 ([3]; PBMC & CRL2505): 0.012 ng/mL | Granzyme ([3]; PBMC & HT-29): 0.003 ng/mL | IFN-gamma ([3]; PBMC & HT-29): 0.022 ng/mL | IL-2 ([3]; PBMC & HT-29): 0.033 ng/mL | Granzyme ([3]; PBMC & HTB46): 0.404 ng/mL | IFN-gamma ([3]; PBMC & HTB46): 0.665 ng/mL | IL-2 ([3]; PBMC & HTB46): 0.168 ng/mL | Granzyme ([3]; PBMC & HTB47): 0.072 ng/mL | IFN-gamma ([3]; PBMC & HTB47): 0.277 ng/mL | IL-2 ([3]; PBMC & HTB47): 0.075 ng/mL | Granzyme ([3]; PBMC & K562): 0.011 ng/mL | IFN-gamma ([3]; PBMC & K562): 0.000 ng/mL | IL-2 ([3]; PBMC & K562): 0.000 ng/mL | Granzyme ([3]; PBMC & M21): 0.001 ng/mL | IFN-gamma ([3]; PBMC & M21): 0.000 ng/mL | IL-2 ([3]; PBMC & M21): 0.037 ng/mL | Granzyme ([3]; PBMC & Panc1): 0.005 ng/mL | IFN-gamma ([3]; PBMC & Panc1): 0.000 ng/mL | IL-2 ([3]; PBMC & Panc1): 0.013 ng/mL | Granzyme ([3]; PBMC & SKBR3): 0.001 ng/mL | IFN-gamma ([3]; PBMC & SKBR3): 0.000 ng/mL | IL-2 ([3]; PBMC & SKBR3): 0.005 ng/mL | Granzyme ([3]; PBMC only): 0.001 ng/mL | IFN-gamma ([3]; PBMC only): 0.000 ng/mL | IL-2 ([3]; PBMC only): 0.000 ng/mL | secretion of cytokines (IL-2, IFN-gamma) and granzyme ([3]; PBMCs in co-culture with diverse tumor cell lines): enhanced secretion of cytokines and granzyme strongly specifically upon tumor cell contact in diverse tumor cell lines | enhancement of cytokine and granzyme secretion ([3]; PBMCs in the absence of tumor cells): such effect was not detected in the absence of tumor cells
